# Laboratory results: ChEMBL document CHEMBL1909046, “DrugMatrix in vitro pharmacology data”
# Legend:
# [1] = DRUGMATRIX: GABAA, Flunitrazepam, Central radioligand binding (ligand: [3H] Flunitrazepam); assay type: cell membranes, Rattus norvegicus, Wistar, Brain, Membrane; conditions: Not Active = under 50% inhibition at 10 µM
# [2] = molecular target: Prostaglandin G/H synthase 1 (Homo sapiens, UniProt P23219); test: biochemical; assay type: tissue-based, Platelet; conditions: platelet;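 note: inhibition of COX-1 enzyme activity, with arachidonic acid supplied as substrate; in other assays of this panel Not Active means under 50% inhibition at 10 µM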
# Chain of Prostaglandin G/H synthase 1 (P23219 whole entry): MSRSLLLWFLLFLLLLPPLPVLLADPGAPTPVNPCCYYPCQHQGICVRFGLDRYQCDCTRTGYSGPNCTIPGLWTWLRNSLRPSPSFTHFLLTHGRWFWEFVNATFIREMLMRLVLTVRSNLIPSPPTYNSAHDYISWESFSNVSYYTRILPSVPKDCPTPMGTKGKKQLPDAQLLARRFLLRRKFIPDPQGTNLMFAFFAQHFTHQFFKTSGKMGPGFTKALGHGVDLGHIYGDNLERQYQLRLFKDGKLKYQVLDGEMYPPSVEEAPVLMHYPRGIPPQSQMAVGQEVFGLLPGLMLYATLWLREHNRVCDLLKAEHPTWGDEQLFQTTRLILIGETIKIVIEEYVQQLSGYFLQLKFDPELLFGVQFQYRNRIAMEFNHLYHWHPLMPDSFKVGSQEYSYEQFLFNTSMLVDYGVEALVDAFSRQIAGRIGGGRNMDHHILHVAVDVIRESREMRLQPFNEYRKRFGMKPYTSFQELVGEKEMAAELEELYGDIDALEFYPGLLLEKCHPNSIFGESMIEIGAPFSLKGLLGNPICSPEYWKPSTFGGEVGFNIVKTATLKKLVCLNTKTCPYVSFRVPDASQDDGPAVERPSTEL
# [3] = molecular target: cGMP-specific 3',5'-cyclic phosphodiesterase (Homo sapiens, UniProt O76074); test: DRUGMATRIX: Phosphodiesterase PDE5 enzyme inhibition (substrate: [3H]cGMP + cGMP); assay type: tissue-based, Platelet; conditions: platelet; Not Active = under 50% inhibition at 10 µM
# [4] = molecular target: T1, Glucocorticoid receptor (Homo sapiens, UniProt P04150); conditions: hela s3; note: in other assays of this panel Not Active means under 50% inhibition at 10 µM
# T1 sequence (P04150 whole entry): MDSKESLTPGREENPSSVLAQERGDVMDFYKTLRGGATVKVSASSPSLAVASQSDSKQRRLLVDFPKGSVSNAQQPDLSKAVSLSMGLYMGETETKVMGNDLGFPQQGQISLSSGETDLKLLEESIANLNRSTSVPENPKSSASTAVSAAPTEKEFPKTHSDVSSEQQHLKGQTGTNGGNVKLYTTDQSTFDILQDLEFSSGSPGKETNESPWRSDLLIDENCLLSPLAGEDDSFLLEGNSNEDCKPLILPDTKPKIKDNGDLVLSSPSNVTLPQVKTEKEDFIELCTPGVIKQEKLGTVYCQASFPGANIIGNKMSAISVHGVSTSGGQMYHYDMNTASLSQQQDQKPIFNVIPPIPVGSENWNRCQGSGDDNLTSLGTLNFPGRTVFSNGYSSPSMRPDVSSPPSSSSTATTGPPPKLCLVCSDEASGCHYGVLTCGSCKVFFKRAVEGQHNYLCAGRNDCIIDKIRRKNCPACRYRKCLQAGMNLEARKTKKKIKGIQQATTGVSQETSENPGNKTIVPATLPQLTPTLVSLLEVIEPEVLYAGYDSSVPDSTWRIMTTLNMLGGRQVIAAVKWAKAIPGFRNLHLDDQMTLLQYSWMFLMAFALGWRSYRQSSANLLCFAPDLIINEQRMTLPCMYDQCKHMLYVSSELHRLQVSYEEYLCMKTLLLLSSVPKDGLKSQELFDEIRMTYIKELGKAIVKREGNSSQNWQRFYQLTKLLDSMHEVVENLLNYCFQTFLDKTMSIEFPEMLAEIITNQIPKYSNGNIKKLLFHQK
# [5] = molecular target: Glycine receptor (Rattus norvegicus, UniProt P22771+P24524+P07727+P20781); assay type: cell membranes, Wistar, Spinal cord, Membrane; note: in other assays of this panel Not Active means under 50% inhibition at 10 µM
# [6] = DRUGMATRIX: Atrial Natriuretic Factor (ANF) radioligand binding (ligand: [125I] ANF (rat)); assay type: cell membranes, Cavia porcellus, Dunkin-Hartley, Adrenal gland, Membrane; conditions: Not Active = under 50% inhibition at 10 µM
# [7] = molecular target: Cytochrome P450 2E1 (Homo sapiens, UniProt P05181); conditions: bti-tn-5b1-4; note: in other assays of this panel Not Active means under 50% inhibition at 10 µM
# Chain of Cytochrome P450 2E1 (P05181 whole entry): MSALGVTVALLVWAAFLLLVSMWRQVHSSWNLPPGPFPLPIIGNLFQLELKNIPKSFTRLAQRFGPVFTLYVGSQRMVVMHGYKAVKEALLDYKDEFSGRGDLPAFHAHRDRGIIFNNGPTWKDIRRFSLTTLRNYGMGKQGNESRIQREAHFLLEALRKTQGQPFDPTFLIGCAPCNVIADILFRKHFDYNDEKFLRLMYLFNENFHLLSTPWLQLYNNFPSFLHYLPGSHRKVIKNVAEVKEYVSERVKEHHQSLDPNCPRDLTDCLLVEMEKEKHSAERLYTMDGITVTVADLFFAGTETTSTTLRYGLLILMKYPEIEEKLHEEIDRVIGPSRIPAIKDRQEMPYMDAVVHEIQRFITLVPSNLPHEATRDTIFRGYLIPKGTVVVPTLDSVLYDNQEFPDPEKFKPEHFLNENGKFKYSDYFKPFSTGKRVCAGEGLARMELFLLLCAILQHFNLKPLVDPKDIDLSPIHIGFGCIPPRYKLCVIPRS
# [8] = molecular target: T2, Cysteinyl leukotriene receptor 1 (Homo sapiens, UniProt Q9Y271); assay type: cell membranes, Membrane; conditions: cho-k1; note: in other assays of this panel Not Active means under 50% inhibition at 10 µM
# T2 sequence (Q9Y271 whole entry): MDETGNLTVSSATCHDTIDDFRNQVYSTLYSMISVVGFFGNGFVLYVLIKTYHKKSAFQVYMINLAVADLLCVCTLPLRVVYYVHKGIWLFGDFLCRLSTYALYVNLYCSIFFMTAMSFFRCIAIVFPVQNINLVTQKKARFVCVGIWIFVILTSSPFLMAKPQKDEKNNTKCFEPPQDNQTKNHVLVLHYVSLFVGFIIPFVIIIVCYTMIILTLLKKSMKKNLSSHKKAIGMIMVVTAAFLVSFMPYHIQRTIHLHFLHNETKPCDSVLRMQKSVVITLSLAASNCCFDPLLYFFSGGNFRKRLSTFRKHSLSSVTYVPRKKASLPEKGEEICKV
Compound,IC50 [1],Ki [1],IC50 [2],IC50 [3],IC50 [4],IC50 [5],IC50 [6],Ki [6],IC50 [7],Ki [7],IC50 [8],IC50 ([1]; read-out: IC50) [nM],Ki ([1]; read-out: Ki) [nM]
CN1CCCC(CN2c3ccccc3Sc3ccccc32)C1 (centres undefined) [MEPAZINE],Not Active,Not Active,Not Active,Not Active,Not Active,Not Active,Not Active,Not Active,Not Active,Not Active,Not Active,–,–
Cc1cccc(C)c1NC(=O)C1CCCCN1C (centres undefined) [MEPIVACAINE],Not Active,Not Active,Not Active,Not Active,Not Active,Not Active,Not Active,Not Active,Not Active,Not Active,Not Active,–,–
CN(C)C(=N)NC(=N)N [METFORMIN],Not Active,Not Active,Not Active,Not Active,Not Active,Not Active,Not Active,Not Active,Not Active,Not Active,Not Active,–,–
CC(C)(C)NCC(O)COc1cccc2c1CC(O)C(O)C2 (centres undefined) [NADOLOL],Not Active,Not Active,Not Active,Not Active,Not Active,Not Active,Not Active,Not Active,Not Active,Not Active,Not Active,–,–
C[C@]12CC[C@H]3[C@@H](CCC4=CC(=O)CC[C@@H]43)[C@@H]1CC[C@@H]2O [NANDROLONE],Not Active,Not Active,Not Active,Not Active,Not Active,Not Active,Not Active,Not Active,Not Active,Not Active,Not Active,–,–
CN(C)C(=O)Oc1cccc([N+](C)(C)C)c1.[Br-] [NEOSTIGMINE BROMIDE],Not Active,Not Active,Not Active,Not Active,Not Active,Not Active,Not Active,Not Active,Not Active,Not Active,Not Active,–,–
NC(=O)c1cccnc1 [NIACINAMIDE],Not Active,Not Active,Not Active,Not Active,Not Active,Not Active,Not Active,Not Active,Not Active,Not Active,Not Active,–,–
CN1C(=O)CN=C(c2ccccc2)c2cc([N+](=O)[O-])ccc21 [NIMETAZEPAM],–,–,Not Active,Not Active,Not Active,Not Active,Not Active,Not Active,Not Active,Not Active,Not Active,104,85
COc1ccc2c(c1OC)C(=O)O[C@@H]2[C@H]1c2c(cc3c(c2OC)OCO3)CCN1C [NOSCAPINE],Not Active,Not Active,Not Active,Not Active,Not Active,Not Active,Not Active,Not Active,Not Active,Not Active,Not Active,–,–
